Test results: US8044069B2, “Compounds as calcium channel blockers” (Abbott Laboratories, priority 2008, dated 2011)

How the values were obtained:
[1] = system: Sprague Dawley rats; assay: Capsaicin induced secondary mechanical hyperalgesia model; assay type: in vivo; conditions: Rattus norvegicus, po, 1 h; 30 mg/kg p.o., 60 minutes before testing; secondary mechanical hyperalgesia 180 minutes after capsaicin; von Frey paw withdrawal threshold
Description: (ii) In Vivo Data—Capsaicin Induced Secondary Mechanical Hyperalgesia Model:
Sprague Dawley rats were briefly restrained, and capsaicin was administered at 10 μg in 10 μL of vehicle by intraplantar injection into the center of the right hind paw. Secondary mechanical hyperalgesia (SMH) was measured at the heel away from the site of injection 180 minutes following capsaicin exposure. Compounds and gabapentin (positive control), were administered p.o. 60 minutes before testing (2 hours after capsaicin) or i.p. 30 minutes before testing (2.5 hours after capsaicin). SMH was measured using calibrated von Frey filaments (Stoelting, Woodale, Ill.). Following the 1 hour habituation in the testing room, rats were moved to individual plexiglass chambers that sit on top of a wire mesh to allow for access for stimulation of the plantar surface of the hind paws. Rats were allowed to acclimate to the new chambers for 15 minutes before the onset of testing. The paw withdrawal threshold was determined by increasing and decreasing stimulus intensity (force: g) and calculated using Dixon's up-down method (Chaplan, S. R.; Bach, F. W.; Pogrel, J. W.; Chung, J. M.; Yaksh, T. L.; Quantitative assessment of tactile allodynia in the rat paw. J. Neuroscience Methods 1994, 53(1), 55-63). The filaments (maximum force of 15.0 g) were held in place for 8 seconds or until there was a withdrawal response from the mechanical stimulation.

[2] = molecular target: human Cav2.2 (Homo sapiens, UniProt Q00975); assay: Assessment of calcium channel activity using FLIPR (Ca2+ influx in IMR32 cells); assay type: cell-based; conditions: IMR32 cells endogenously expressing human Cav2.2; 60 minute pre-incubation; 2 μM nifedipine; depolarized with 80 mM KCl, 5 mM CaCl2
human Cav2.2, sequence (Q00975 whole entry): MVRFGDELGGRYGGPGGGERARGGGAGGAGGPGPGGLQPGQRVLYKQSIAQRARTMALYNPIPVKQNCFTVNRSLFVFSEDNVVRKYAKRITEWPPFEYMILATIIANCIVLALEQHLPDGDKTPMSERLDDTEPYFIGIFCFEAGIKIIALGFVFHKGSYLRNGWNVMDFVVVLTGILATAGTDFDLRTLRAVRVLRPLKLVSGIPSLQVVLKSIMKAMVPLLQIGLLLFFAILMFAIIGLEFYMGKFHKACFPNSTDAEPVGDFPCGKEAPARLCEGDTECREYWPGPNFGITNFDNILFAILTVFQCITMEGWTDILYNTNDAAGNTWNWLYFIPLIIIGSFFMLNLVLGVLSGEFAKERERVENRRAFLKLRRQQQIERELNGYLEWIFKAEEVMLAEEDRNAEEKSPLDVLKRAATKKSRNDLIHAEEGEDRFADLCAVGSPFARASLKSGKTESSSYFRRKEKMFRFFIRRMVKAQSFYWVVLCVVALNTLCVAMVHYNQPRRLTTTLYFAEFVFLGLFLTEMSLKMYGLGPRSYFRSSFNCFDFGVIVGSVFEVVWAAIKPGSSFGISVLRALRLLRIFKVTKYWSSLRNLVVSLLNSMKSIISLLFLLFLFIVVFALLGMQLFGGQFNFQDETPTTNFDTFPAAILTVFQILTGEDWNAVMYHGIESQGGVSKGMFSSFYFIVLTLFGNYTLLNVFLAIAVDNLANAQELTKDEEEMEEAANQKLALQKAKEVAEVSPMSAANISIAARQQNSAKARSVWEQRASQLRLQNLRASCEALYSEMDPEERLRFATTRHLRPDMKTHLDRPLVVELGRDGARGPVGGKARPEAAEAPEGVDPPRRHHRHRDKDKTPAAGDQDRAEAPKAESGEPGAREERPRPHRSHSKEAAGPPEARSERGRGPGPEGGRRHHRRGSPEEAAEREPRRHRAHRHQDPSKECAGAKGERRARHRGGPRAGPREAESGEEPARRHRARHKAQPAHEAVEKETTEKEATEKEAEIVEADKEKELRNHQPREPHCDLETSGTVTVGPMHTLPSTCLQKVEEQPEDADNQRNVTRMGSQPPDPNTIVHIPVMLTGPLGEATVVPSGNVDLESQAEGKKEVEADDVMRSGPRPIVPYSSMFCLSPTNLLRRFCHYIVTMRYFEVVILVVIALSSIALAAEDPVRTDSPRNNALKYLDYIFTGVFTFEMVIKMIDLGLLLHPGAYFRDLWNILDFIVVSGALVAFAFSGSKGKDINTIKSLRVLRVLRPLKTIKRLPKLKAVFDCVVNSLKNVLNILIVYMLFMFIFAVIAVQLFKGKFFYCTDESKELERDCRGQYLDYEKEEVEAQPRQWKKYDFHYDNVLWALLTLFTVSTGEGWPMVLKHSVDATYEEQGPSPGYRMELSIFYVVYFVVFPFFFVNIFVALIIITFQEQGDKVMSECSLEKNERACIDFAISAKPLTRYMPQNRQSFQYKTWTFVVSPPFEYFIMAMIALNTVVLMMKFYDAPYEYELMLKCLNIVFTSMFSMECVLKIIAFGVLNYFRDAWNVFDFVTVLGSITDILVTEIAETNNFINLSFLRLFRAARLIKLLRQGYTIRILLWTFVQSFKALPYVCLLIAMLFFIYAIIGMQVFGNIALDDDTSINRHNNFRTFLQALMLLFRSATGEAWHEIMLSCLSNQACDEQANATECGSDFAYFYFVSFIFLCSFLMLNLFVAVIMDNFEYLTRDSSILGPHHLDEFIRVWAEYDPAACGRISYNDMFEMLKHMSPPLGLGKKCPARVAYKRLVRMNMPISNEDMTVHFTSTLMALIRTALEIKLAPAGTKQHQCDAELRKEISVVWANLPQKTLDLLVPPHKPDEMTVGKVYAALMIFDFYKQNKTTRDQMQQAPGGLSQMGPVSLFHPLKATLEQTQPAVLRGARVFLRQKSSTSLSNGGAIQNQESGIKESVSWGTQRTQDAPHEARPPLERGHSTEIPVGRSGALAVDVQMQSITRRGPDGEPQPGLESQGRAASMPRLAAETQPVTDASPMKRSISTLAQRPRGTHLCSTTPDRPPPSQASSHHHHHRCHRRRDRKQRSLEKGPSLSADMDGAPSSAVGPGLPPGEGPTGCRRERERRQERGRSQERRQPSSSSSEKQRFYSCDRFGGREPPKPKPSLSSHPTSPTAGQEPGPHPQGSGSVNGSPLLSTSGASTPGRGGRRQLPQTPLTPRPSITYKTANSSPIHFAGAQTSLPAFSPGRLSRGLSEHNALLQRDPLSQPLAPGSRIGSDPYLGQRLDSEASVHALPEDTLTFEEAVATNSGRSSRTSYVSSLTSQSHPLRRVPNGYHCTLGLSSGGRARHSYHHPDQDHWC
human Cav2.2, sequence (P54289 25-951 partner limits assumed): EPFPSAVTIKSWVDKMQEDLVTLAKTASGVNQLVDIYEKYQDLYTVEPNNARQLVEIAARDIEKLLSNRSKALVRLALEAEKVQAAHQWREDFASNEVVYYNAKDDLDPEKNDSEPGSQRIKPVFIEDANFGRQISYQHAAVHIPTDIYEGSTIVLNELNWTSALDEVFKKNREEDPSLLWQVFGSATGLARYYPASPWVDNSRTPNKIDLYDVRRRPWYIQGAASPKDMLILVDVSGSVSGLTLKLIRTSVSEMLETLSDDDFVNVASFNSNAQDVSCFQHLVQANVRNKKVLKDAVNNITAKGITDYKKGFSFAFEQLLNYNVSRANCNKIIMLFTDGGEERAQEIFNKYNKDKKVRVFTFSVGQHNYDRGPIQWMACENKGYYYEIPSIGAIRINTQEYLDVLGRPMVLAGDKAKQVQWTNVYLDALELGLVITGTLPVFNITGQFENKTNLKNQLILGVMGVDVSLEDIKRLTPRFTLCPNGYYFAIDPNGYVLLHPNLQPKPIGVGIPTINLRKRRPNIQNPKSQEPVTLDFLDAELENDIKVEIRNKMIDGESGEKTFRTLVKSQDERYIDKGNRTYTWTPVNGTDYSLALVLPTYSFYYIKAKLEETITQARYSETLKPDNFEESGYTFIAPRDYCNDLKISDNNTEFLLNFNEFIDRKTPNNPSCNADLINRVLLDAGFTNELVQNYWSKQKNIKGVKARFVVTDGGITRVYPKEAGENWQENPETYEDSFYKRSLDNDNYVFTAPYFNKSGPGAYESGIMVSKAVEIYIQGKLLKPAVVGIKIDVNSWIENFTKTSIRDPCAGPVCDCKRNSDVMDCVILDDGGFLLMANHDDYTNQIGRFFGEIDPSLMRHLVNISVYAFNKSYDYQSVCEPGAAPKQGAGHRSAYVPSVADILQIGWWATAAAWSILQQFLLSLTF
human Cav2.2, sequence (P54289 952-1103 partner limits assumed): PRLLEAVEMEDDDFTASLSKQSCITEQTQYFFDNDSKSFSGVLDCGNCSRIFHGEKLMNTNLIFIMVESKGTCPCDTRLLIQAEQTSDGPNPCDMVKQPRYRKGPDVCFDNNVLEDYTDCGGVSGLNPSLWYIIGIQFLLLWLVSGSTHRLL
human Cav2.2, sequence (P54284 whole entry partner): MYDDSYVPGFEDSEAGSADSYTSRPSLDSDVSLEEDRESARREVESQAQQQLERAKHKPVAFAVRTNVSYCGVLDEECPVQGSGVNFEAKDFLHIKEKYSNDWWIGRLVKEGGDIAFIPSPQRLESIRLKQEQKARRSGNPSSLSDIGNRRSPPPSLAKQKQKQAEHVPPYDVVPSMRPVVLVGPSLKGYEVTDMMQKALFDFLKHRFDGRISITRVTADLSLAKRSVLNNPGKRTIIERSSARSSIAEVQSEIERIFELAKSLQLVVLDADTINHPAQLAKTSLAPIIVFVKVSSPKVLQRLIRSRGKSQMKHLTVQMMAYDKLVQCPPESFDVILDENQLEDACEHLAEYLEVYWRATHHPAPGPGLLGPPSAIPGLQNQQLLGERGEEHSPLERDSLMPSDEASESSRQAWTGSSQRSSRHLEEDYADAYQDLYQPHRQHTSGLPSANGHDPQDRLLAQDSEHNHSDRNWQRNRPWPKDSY
Summary of the method: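 FLIPR measured Ca2+ influx triggered by 80 mM KCl depolarization together with a step to 5 mM external CaCl2. Percent inhibition relative to uninhibited activity was fitted sigmoidally for IC50.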

| IC50 [2] [nM] | SMILES | inhibition in vivo at 30 mg/kg [1] [%] |
| --- | --- | --- |
| 930 | O=C(CN1CCCC(c2ccccc2)(c2ccccc2)C1=O)N1CCN(Cc2cccc(C(F)(F)F)c2)CC1 [Example 79, 1-(2-oxo-2-{4-[3-(trifluoromethyl)benzyl]piperazin-1-yl}ethyl)-3,3-diphenylpiperidin-2-one] | 49 |
| 660 | O=C(CN1CCCC(c2ccccc2)(c2ccccc2)C1=O)N1CCC(c2ccccc2)(c2ccccc2)CC1 [Example 72, 1-[2-(4,4-diphenylpiperidin-1-yl)-2-oxoethyl]-3,3-diphenylpiperidin-2-one] | 78 |
| 2180 | O=C(CN1CCCC(c2ccccc2)C1=O)N1CCN(C(c2ccccc2)c2ccccc2)CC1 (stereo not drawn) [Example 91, 1-[2-(4-benzhydrylpiperazin-1-yl)-2-oxoethyl]-3-phenylpiperidin-2-one] | 58 |
| 1380 | O=C(CN1CCCC(c2ccccc2)(c2ccccc2)C1=O)N1CCN(C(c2ccccc2)c2ccccc2)CC1 [Example 68, 1-[2-(4-benzhydrylpiperazin-1-yl)-2-oxoethyl]-3,3-diphenylpiperidin-2-one] | 71 |
| 14100 | O=C(CN1CCC(c2ccc(F)cc2)C1=O)N1Cc2ccc(C(F)(F)F)cc2C1 (single isomer, unassigned; (+)) [Example 264, (+)-3-(4-fluorophenyl)-1-{2-oxo-2-[5-(trifluoromethyl)-1,3-dihydro-2H-isoindol-2-yl]ethyl}pyrrolidin-2-one] | 49 |

Further lines, the compound ahead of its results:

| SMILES | IC50 [2] [nM] | inhibition in vivo at 30 mg/kg [1] [%] |
| --- | --- | --- |
| O=C(CN1CCC(c2ccc(F)cc2)(c2ccc(F)cc2)C1=O)N1CCN(C(c2ccccc2)c2ccccc2)CC1 [Example 58, 1-[2-(4-benzhydrylpiperazin-1-yl)-2-oxoethyl]-3,3-bis(4-fluorophenyl)pyrrolidin-2-one] | 830 | 97 |
| O=C(CN1CCC(c2ccccc2)(c2ccccc2)C1=O)N1CCN(C(c2ccc(F)cc2)c2ccc(F)cc2)CC1 [Example 45, 1-(2-{4-[bis(4-fluorophenyl)methyl]piperazin-1-yl}-2-oxoethyl)-3,3-diphenylpyrrolidin-2-one] | 430 | 51 |
| O=C(CN1CCC(c2ccccc2)(c2ccccc2)C1=O)N1CCC(c2ccccc2)(c2ccccc2)C1 [Example 17, 1-[2-(3,3-diphenylpyrrolidin-1-yl)-2-oxoethyl]-3,3-diphenylpyrrolidin-2-one] | 780 | 50 |
| O=C(CN1CCC(c2ccccc2)(c2ccccc2)C1=O)NC1CCN(Cc2cccc(C(F)(F)F)c2)CC1 [Example 41, 2-(2-oxo-3,3-diphenylpyrrolidin-1-yl)-N-{1-[3-(trifluoromethyl)benzyl]piperidin-4-yl}acetamide] | 780 | 75 |
| O=C(CN1CCC(c2ccccc2)(c2ccccc2)C1=O)N1CCN(C(c2ccccc2)c2ccccc2)CC1 [Example 1, 1-[2-(4-benzhydrylpiperazin-1-yl)-2-oxoethyl]-3,3-diphenylpyrrolidin-2-one] | 1100 | 61 |
| O=C(CN1CCC(c2ccccc2)(c2ccccc2)C1=O)N1CCN(C(c2ccccc2)c2ccccc2)C(=O)C1 [Example 28, 1-benzhydryl-4-[(2-oxo-3,3-diphenylpyrrolidin-1-yl)acetyl]piperazin-2-one] | 1090 | 60 |
| O=C(CN1CCC(c2ccccc2)(c2ccccc2)C1=O)N1Cc2ccc(C(F)(F)F)cc2C1 [Example 20, 1-{2-oxo-2-[5-(trifluoromethyl)-1,3-dihydro-2H-isoindol-2-yl]ethyl}-3,3-diphenylpyrrolidin-2-one] | 2820 |  |
| O=C(CN1CCC(c2ccccc2)(c2ccccc2)C1=O)N1CCN(C(c2ccccc2)c2ccc(Cl)cc2)CC1 (stereo not drawn) [Example 47, 1-(2-{4-[(4-chlorophenyl)(phenyl)methyl]piperazin-1-yl}-2-oxoethyl)-3,3-diphenylpyrrolidin-2-one] | 1010 |  |
